This is an account of results in patent publication US9540391B2, “Isomannide derivatives as inhibitors of soluble epoxide hydrolase” (SANOFI, priority 2013, dated 2017).

By IC50 is commonly meant the concentration that inhibits the measured activity by half.

In the experiment the target is T1, recombinant sEH (Homo sapiens, UniProt P34913).
T1 construct: made in house; host or cells: Sf9 insect cells
T1 sequence (P34913 1-555): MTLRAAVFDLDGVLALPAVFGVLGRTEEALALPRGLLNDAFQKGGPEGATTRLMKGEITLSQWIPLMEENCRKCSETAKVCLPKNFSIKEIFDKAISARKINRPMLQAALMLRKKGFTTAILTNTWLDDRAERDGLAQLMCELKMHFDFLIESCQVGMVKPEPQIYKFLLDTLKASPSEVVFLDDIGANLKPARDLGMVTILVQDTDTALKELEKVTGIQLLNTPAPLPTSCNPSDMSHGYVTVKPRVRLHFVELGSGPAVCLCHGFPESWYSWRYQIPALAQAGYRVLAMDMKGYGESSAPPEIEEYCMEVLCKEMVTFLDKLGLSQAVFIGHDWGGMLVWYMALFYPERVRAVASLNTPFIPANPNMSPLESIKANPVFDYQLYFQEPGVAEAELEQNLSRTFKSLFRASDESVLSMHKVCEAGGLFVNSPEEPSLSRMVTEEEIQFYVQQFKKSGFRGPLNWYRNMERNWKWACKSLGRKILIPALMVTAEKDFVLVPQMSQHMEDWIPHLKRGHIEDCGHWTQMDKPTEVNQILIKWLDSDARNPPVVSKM
The experiment in a line: biochemical screening assay for inhibition of soluble epoxide hydrolase (fluorometric, Phome substrate). The procedure, abridged:
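Human sEH from Sf9 cells (2 nM final) was pre-incubated 15 min at 30 °C with compound (0.0001–10 μM), then reacted 60 min at 30 °C with 5 μM Phome in 25 mM Hepes/0.01% albumin. Fluorescence of released 6-methoxy-2-naphthaldehyde was read before substrate and at end; IC50 from % inhibition.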

On to `O=C(NC1CCCCC1)N[C@H]1CO[C@H]2[C@@H]1OC[C@@H]2Oc1cc(Br)ccc1Cl` [Example 147, 1-[(3S,3aR,6S,6aS)-6-(5-Bromo-2-chloro-phenoxy)-hexahydro-furo[3,2-b]furan-3-yl]-3-cyclohexyl-urea], for which the half-inhibitory concentration (IC50) is 2 nM.
As for `COC(=O)c1ccc2cc(O[C@H]3CO[C@H]4[C@@H]3OC[C@@H]4NC(=O)NC3CCCCC3)ccc2c1` [Example 148, 6-[(3S,3aS,6S,6aR)-6-(3-Cyclohexyl-ureido)-hexahydro-furo[3,2-b]furan-3-yloxy]-naphthalene-2-carboxylic acid methyl ester], the figure is 3 nM; as for `CC(C)(C)NC(=O)N[C@H]1CO[C@H]2[C@@H]1OC[C@@H]2Oc1ccc(F)cc1` [Example 149, 1-tert-Butyl-3-[(3S,3aR,6S,6aS)-6-(4-fluoro-phenoxy)-hexahydro-furo[3,2-b]furan-3-yl]-urea], 2160 nM; as for `O=C(NC1CCc2ccccc21)NC1COC2C(Oc3ccc(F)cc3)COC12` [Example 150, 1-[(3S,3aR,6S,6aS)-6-(4-Fluoro-phenoxy)-hexahydro-furo[3,2-b]furan-3-yl]-3-(S)-indan-1-yl-urea], 16 nM.
Turning to `CC1CCC(NC(=O)N[C@H]2CO[C@H]3[C@@H]2OC[C@@H]3Oc2ccc(F)cc2)CC1` (stereo partly drawn) [Example 151, 1-[(3S,3aR,6S,6aS)-6-(4-Fluoro-phenoxy)-hexahydro-furo[3,2-b]furan-3-yl]-3-(4-methyl-cyclohexyl)-urea], the IC50 turned out to be 8 nM.
For the compound `O=C(N[C@H]1CO[C@H]2[C@@H]1OC[C@@H]2Oc1ccc(F)cc1)N[C@@H]1CCC[C@H]1OCc1ccccc1` [Example 152, 1-((1R,2R)-2-Benzyloxy-cyclopentyl)-3-[(3S,3aR,6S,6aS)-6-(4-fluoro-phenoxy)-hexahydro-furo[3,2-b]furan-3-yl]-urea], the IC50 was determined as 2 nM.
To `O=C(N[C@H]1CO[C@H]2[C@@H]1OC[C@@H]2Oc1ccc(F)cc1)N[C@H]1CCC[C@@H]1OCc1ccccc1` [Example 153, 1-((1S,2S)-2-Benzyloxy-cyclopentyl)-3-[(3S,3aR,6S,6aS)-6-(4-fluoro-phenoxy)-hexahydro-furo[3,2-b]furan-3-yl]-urea] belongs 62 nM; to `CC[C@@H](NC(=O)N[C@H]1CO[C@H]2[C@@H]1OC[C@@H]2Oc1ccc(F)cc1)c1ccccc1` [Example 154, 1-[(3S,3aR,6S,6aS)-6-(4-Fluoro-phenoxy)-hexahydro-furo[3,2-b]furan-3-yl]-3-((R)-1-phenyl-propyl)-urea], 51 nM.
As to `COc1cccc([C@@H](C)NC(=O)N[C@H]2CO[C@H]3[C@@H]2OC[C@@H]3Oc2ccc(F)cc2)c1` [Example 155, 1-[(3S,3aR,6S,6aS)-6-(4-Fluoro-phenoxy)-hexahydro-furo[3,2-b]furan-3-yl]-3-[(R)-1-(3-methoxy-phenyl)-ethyl]-urea], the IC50 was determined as 38 nM.
Regarding `C[C@H](NC(=O)N[C@H]1CO[C@H]2[C@@H]1OC[C@@H]2Oc1ccc(F)cc1)C1CCCCC1` [Example 156, 1-((S)-1-Cyclohexyl-ethyl)-3-[(3S,3aR,6S,6aS)-6-(4-fluoro-phenoxy)-hexahydro-furo[3,2-b]furan-3-yl]-urea], the 50% inhibitory concentration (IC50) was found to be 24 nM.
In the case of `O=C(NC1CCN(C(=O)C(F)(F)F)CC1)N[C@H]1CO[C@H]2[C@@H]1OC[C@@H]2Oc1ccc(F)cc1` [Example 157, 1-[(3S,3aR,6S,6aS)-6-(4-Fluoro-phenoxy)-hexahydro-furo[3,2-b]furan-3-yl]-3-[1-(2,2,2-trifluoro-acetyl)-piperidin-4-yl]-urea], the half-inhibitory concentration (IC50) worked out at 11 nM.
As for `O=C(NC1CCCc2ccccc21)N[C@H]1CO[C@H]2[C@@H]1OC[C@@H]2Oc1ccc(F)cc1` (stereo partly drawn) [Example 158, 1-[(3S,3aR,6S,6aS)-6-(4-Fluoro-phenoxy)-hexahydro-furo[3,2-b]furan-3-yl]-3-(1,2,3,4-tetrahydro-naphthalen-1-yl)-urea], the IC50 was 27 nM.
To `C[C@@H](NC(=O)N[C@H]1CO[C@H]2[C@@H]1OC[C@@H]2Oc1ccc(F)cc1)c1ccc(F)cc1` [Example 159, 1-[(3S,3aR,6S,6aS)-6-(4-Fluoro-phenoxy)-hexahydro-furo[3,2-b]furan-3-yl]-3-[(R)-1-(4-fluoro-phenyl)-ethyl]-urea] belongs 5 nM; to `C[C@H](NC(=O)N[C@H]1CO[C@H]2[C@@H]1OC[C@@H]2Oc1ccc(F)cc1)c1ccc(F)cc1` [Example 160, 1-[(3S,3aR,6S,6aS)-6-(4-Fluoro-phenoxy)-hexahydro-furo[3,2-b]furan-3-yl]-3-[(S)-1-(4-fluoro-phenyl)-ethyl]-urea], 31 nM; to `C[C@H](NC(=O)N[C@H]1CO[C@H]2[C@@H]1OC[C@@H]2Oc1ccc(F)cc1)c1ccccc1` [Example 161, 1-[(3S,3aR,6S,6aS)-6-(4-Fluoro-phenoxy)-hexahydro-furo[3,2-b]furan-3-yl]-3-((S)-1-phenyl-ethyl)-urea], 47 nM.
As for `C[C@@H](NC(=O)N[C@H]1CO[C@H]2[C@@H]1OC[C@@H]2Oc1ccc(F)cc1)c1ccccc1` [Example 162, 1-[(3S,3aR,6S,6aS)-6-(4-Fluoro-phenoxy)-hexahydro-furo[3,2-b]furan-3-yl]-3-((R)-1-phenyl-ethyl)-urea], the IC50 worked out at 39 nM.
In the case of `O=C(N[C@H]1CO[C@H]2[C@@H]1OC[C@@H]2Oc1ccc(F)cc1)N[C@H]1CCCC[C@@H]1OCc1ccccc1` [Example 163, 1-((1S,2S)-2-Benzyloxy-cyclohexyl)-3-[(3S,3aR,6S,6aS)-6-(4-fluoro-phenoxy)-hexahydro-furo[3,2-b]furan-3-yl]-urea], the IC50 came out at 192 nM.
As for `O=C(N[C@H]1CO[C@H]2[C@@H]1OC[C@@H]2Oc1ccc(F)cc1)N[C@@H]1CCCC[C@H]1OCc1ccccc1` [Example 164, 1-((1R,2R)-2-Benzyloxy-cyclohexyl)-3-[(3S,3aR,6S,6aS)-6-(4-fluoro-phenoxy)-hexahydro-furo[3,2-b]furan-3-yl]-urea], the figure is 487 nM; as for `C[C@@H](NC(=O)N[C@H]1CO[C@H]2[C@@H]1OC[C@@H]2Oc1ccc(F)cc1)C1CCCCC1` [Example 165, 1-((R)-1-Cyclohexyl-ethyl)-3-[(3S,3aR,6S,6aS)-6-(4-fluoro-phenoxy)-hexahydro-furo[3,2-b]furan-3-yl]-urea], 21 nM; as for `C[C@@H](NC(=O)N[C@H]1CO[C@H]2[C@@H]1OC[C@@H]2Oc1ccc(F)cc1)c1ccc(Cl)cc1` [Example 166, 1-[(R)-1-(4-Chloro-phenyl)-ethyl]-3-[(3S,3aR,6S,6aS)-6-(4-fluoro-phenoxy)-hexahydro-furo[3,2-b]furan-3-yl]-urea], 18 nM.
Consider `COc1ccc([C@H](C)NC(=O)N[C@H]2CO[C@H]3[C@@H]2OC[C@@H]3Oc2ccc(F)cc2)cc1` [Example 167, 1-[(3S,3aR,6S,6aS)-6-(4-Fluoro-phenoxy)-hexahydro-furo[3,2-b]furan-3-yl]-3-[(S)-1-(4-methoxy-phenyl)-ethyl]-urea], for which the 50% inhibitory concentration (IC50) was found to be 66 nM.
As for `COc1ccc([C@@H](C)NC(=O)N[C@H]2CO[C@H]3[C@@H]2OC[C@@H]3Oc2ccc(F)cc2)cc1` [Example 168, 1-[(3S,3aR,6S,6aS)-6-(4-Fluoro-phenoxy)-hexahydro-furo[3,2-b]furan-3-yl]-3-[(R)-1-(4-methoxy-phenyl)-ethyl]-urea], the IC50 was found to be 6 nM.
With `O=C(N[C@H]1CO[C@H]2[C@@H]1OC[C@@H]2Oc1ccc(F)cc1)NC1(c2cccs2)CCOCC1` [Example 169, 1-[(3S,3aR,6S,6aS)-6-(4-Fluoro-phenoxy)-hexahydro-furo[3,2-b]furan-3-yl]-3-(4-thiophen-2-yl-tetrahydro-pyran-4-yl)-urea], the half-inhibitory concentration (IC50) stood at 4460 nM.
As for `O=C(NC1CCOCC1)N[C@H]1CO[C@H]2[C@@H]1OC[C@@H]2Oc1ccc(F)cc1` [Example 170, 1-[(3S,3aR,6S,6aS)-6-(4-Fluoro-phenoxy)-hexahydro-furo[3,2-b]furan-3-yl]-3-(tetrahydro-pyran-4-yl)-urea], the figure is 103 nM; as for `Cc1cc(CNC(=O)N[C@H]2CO[C@H]3[C@@H]2OC[C@@H]3Oc2cccnc2C)on1` [Example 171, 1-(3-Methyl-isoxazol-5-ylmethyl)-3-[(3S,3aR,6S,6aS)-6-(2-methyl-pyridin-3-yloxy)-hexahydro-furo[3,2-b]furan-3-yl]-urea], 2350 nM; as for `Cc1ncccc1O[C@H]1CO[C@H]2[C@@H]1OC[C@@H]2NC(=O)NCc1ccccn1` [Example 172, 1-[(3S,3aR,6S,6aS)-6-(2-Methyl-pyridin-3-yloxy)-hexahydro-furo[3,2-b]furan-3-yl]-3-pyridin-2-ylmethyl-urea], 1240 nM.
Turning to `Cc1ncccc1OC1COC2C(NC(=O)NC3CC4CCC3(C)C4(C)C)COC12` [Example 173, 1-[(2R,3aS,5S,6S)-6-(2-Methyl-pyridin-3-yloxy)-hexahydro-furo[3,2-b]furan-3-yl]-3-((1R,2S,4R)-1,7,7-trimethyl-bicyclo[2.2.1]hept-2-yl)-urea], the IC50 was found to be 5 nM.
To `Cc1ncccc1O[C@H]1CO[C@H]2[C@@H]1OC[C@@H]2NC(=O)N[C@@H]1C[C@H](C)CC[C@H]1C(C)C` [Example 174, 1-((1R,2S,5R)-2-Isopropyl-5-methyl-cyclohexyl)-3-[(3S,3aR,6S,6aS)-6-(2-methyl-pyridin-3-yloxy)-hexa-hydro-furo[3,2-b]furan-3-yl]-urea] belongs 31 nM.
